From patent US20110142829A1, “ANTI-TUMOUR COMPOSITIONS AND METHODS” (priority 2008, published 2011)
Like-named read-outs stand apart in the source and are kept apart here.

How the values were obtained:
[1] = oltipraz 100 mg/kg po days 1, 3, 8, 10, given with Cetuximab
Excerpt: (§1) Initiation of treatment was designated day 1.
(§2) Animals were acclimatized prior to study commencement.
Groups were compared using the One-Way ANOVA method.

[2] = formulated with CMC
A549 lung cancer cells = conditions: for Tumour Growth Inhibition (TGI): A549 tumours in nude mice, cisplatin 5 mg/kg; for Tumour Growth Inhibition (TGI) / mean tumour volume on day 21: oltipraz 100 mg/kg; for mean tumour volume on day 1: day 1 (initiation of treatment); for mean tumour volume on day 21: cisplatin 5 mg/kg day 2, vehicle control 536 mm^3
Description: as §1
A549 human lung cancer cells were obtained from ATCC. These cells were grown in F-12 supplemented with 10% Fetal Calf Serum (FCS), penicillin and streptomycin, and 2 mM L-Glutamine. Cells were sub-cultured by removing the medium, rinsing twice with sterile calcium-free and magnesium-free phosphate buffered saline (PBS) and adding 1 to 2 ml of 0.25% trypsin and 0.03% EDTA solution. The flask was allowed to sit at 37° C. until the cells detached. Cells were then sub-cultured at a ratio of 1:3.
as §2
Tumours were measured once every two days with micro-calipers, and tumour volume was calculated as (length×width)^3π/3. The tumour growth index (TGI) was calculated using the formula 100−(Vc*100/Vt), where Vc is the mean volume of the tumours in the control group and Vt is the mean volume of the tumours in the test group.
Tumour volumes were calculated from the length and width measurements taken on alternating days by calculating the mean radius (r), which was the sum of length and width divided by 4, and using the formula 4/3 πr^3 to calculate the volume.

Row | Structure (SMILES) | toxicity based on observations of survival and weight change [1] | amount that can be administered without significant toxicity resulting [2] | Tumour Growth Inhibition (TGI) (A549 lung cancer cells) [%] | mean tumour volume on day 1 (A549 lung cancer cells) [mm^3] | mean tumour volume on day 21 (A549 lung cancer cells) [mm^3] | average weight gain, % of starting weight by day 21 (female nude mice with A549 tumours, cisplatin 5 mg/kg sc day 2, oltipraz 100 mg/kg po (alone days 1, 3, 8, 10; combination days 1 and 3), day 21) [%] | toxicity based on observations of survival and weight change (oltipraz alone 100 mg/kg po days 1, 3, 8, 10)
1 | Cc1c(-c2cnccn2)ssc1=S [oltipraz, 4-methyl-5(2-pyrazinyl)-3H-1,2-dithiole-3-thione] | no evidence of toxicity | up to 2000 mg/kg | 62.3 | 93 | 200 | 4.9 | no evidence of toxicity
2 | N.N.[Cl][Pt][Cl] [cisplatin, cis-diamminedichloridoplatinum(II)] | – | – | 48.8 | 93 | 275 | – | –
